Test [1] is described as follows: Singlet oxygen generation with Singlet Oxygen Sensor Green (SOSG) under LED irradiation. The test is classed as physicochemical. To be noted: for k (fitting parameter for 1O2 generation curve): 0.1 W/cm^2, 650 nm LED for DBC-UiO and H2DBC, 640 nm for the others. As to the method:
A light-emitting diode (LED) array with peak emission at 640 nm was used as the light source of singlet oxygen generation. The irradiance of LED is 100 mW/cm^2. Singlet oxygen sensor green (SOSG) reagent (Life Technologies, Carlsbad, Calif., United States of America) was employed for the detection of singlet oxygen. H2DBP and DBP-UiO samples were prepared in 5 μM solutions/suspensions in HBSS buffer (for DBP-UiO samples, the concentration was calculated as ligand equivalents). To 2 mL each of these solutions/suspensions, SOSG stock solution (5 μL at 5 mM) was added (final concentration=12.5 μM) before fluorescence measurement.
For a typical measurement, fluorescence intensity was acquired on a spectrofluorophotometer (RF-5301PC, Shimadzu Corporation, Kyoto, Japan) with excitation at 504 nm and emission at 525 nm (slit width 3 nm/5 nm for ex/em). Fluorescence was measured after irradiation by LED for 0 (as background), 10 s, 20 s, 30 s, 1 min, 1.5 min, 2 min, 2.5 min, 3 min, 3.5 min, 4 min, 4.5 min, 5 min, 6 min and 7 min.
Singlet oxygen generation efficiencies of H2DBP and DBP-UiO were determined using Singlet Oxygen Sensor Green (SOSG, Life Technologies). After exposure to a LED light source (peak emission at 640 nm, energy irradiance of 100 mW/cm^2), the […] reagent SOSG reacted with ^1O2 to generate green fluorescence which was quantified with a fluorimeter. The fluorescence intensity was plotted against irradiation time. […] The ^1O2 generation curve was fitted with the following equation: IF=A(1−e^−kt) (1) Where IF is fluorescence intensity and t represents irradiation time while A and k are fitting parameters (for detailed derivations, see SI). […]
Singlet Oxygen Sensor Green (SOSG) was employed to determine ^1O2 generation efficiencies of H2DBC and DBC-UiO. SOSG reacted with generated ^1O2 to give green fluorescence (λem=525 nm) that was quantified with a fluorometer. For comparison, ^1O2 generation efficiency of H2DBP, DBP-UiO and protoporphyrin IX (PpIX) were also determined. […]

For test [2], the system named is CT26 cells. Description: Calreticulin (CRT) surface expression after PDT (immunogenic cell death). Format: cell-based, murine. Particulars: 5 μM. As to the method:
CT26 cells were incubated with 5 μM DBC-UiO or H2DBC followed by light irradiation at 0.1 W/cm^2 for 15 min (90 J/cm^2). The apoptosis induced by PDT treatment was determined with the Alexa Fluor 488 Annexin V/dead cell apoptosis kit by flow cytometry. […] Calreticulin (CRT) is a distinct biomarker exposed on the surface of cells undergoing ICD. The CRT expression was determined by flow cytometry and immunofluorescence to assess the ICD induced by DBC-UiO induced PDT. CT26 cells were treated with 5 μM DBC-UiO or H2DBC followed by light irradiation at 0.1 W/cm^2 for 15 min (90 J/cm^2). For flow cytometry analysis, cells were collected and stained with Alexa Fluor 488-CRT antibody and propidium iodide (PI). The fluorescence intensity of stained cells was gated on PI-negative cells. For immunostaining analysis, the cells were stained with AlexaFluor 488-CRT conjugated antibody and DAPI nuclei stain, and observed using confocal laser scanning microscopy (CLSM).

For test [3], the system named is human head and neck cancer cells SQ20B. Kind of test: In vitro PDT cytotoxicity (MTS). Format: cell-based. Particulars: 5-100 μM ligand, 640 nm LED 100 mW/cm^2, 15 min (90 J/cm^2) or 30 min (180 J/cm^2). As to the method: The cytotoxicity of DBP-UiO and H2DBP was evaluated in human head and neck cancer cells SQ20B which are resistant to cisplatin and conventional radiotherapy. SQ20B cells were seeded on 96-well plates at 2000 cells/well. The cells were treated with DBP-UiO and H2DBP at various ligand concentrations (5, 10, 20, 50 and 100 μM base on ligand concentrations) after a 24-h incubation. A further incubation of 4 h was allowed, followed by replacing the culture medium with 100 μL of fresh DMEM/F12 medium. The cells were irradiated with LED light (640 nm) at 100 mW/cm^2 for 15 min (total light dose 90 J/cm^2) or 30 min (total light dose 180 J/cm^2), respectively. The cells without irradiation treatment served as controls. The cells were further incubated to achieve a total incubation time of 72 h with DBP-UiO or H2DBP. The cell viability was detected by (3-(4,5-dimethylthiazol-2-yl)-5-(3-carboxymethoxyphenyl)-2-(4-sulfophenyl)-2H-tetra-zolium) (MTS) assay (Promega, Madison, Wis., United States of America).
To further confirm the PDT efficacy of DBP-UiO, SQ20B cancer cells were treated with H2DBP or DBP-UiO at various concentrations (5, 10, 20, 50 and 100 μM based on ligand concentrations), the cells were irradiated with LED light (640 nm, 100 mW/cm^2) for 15 min (total light dose 90 J/cm^2) or 30 min (total light dose 180 J/cm^2), respectively.

Take 5, 15-di(p-benzoato)chlorin [H2DBC]: the “k (fitting parameter for 1O2 generation curve)” value in test [1] amounted to 0.25 min⁻¹. Besides, the “surface CRT expression” value in test [2] (light irradiation 90 J/cm^2) is recorded as “significant amounts of CRT were detected”; in test [2] (without light irradiation), “no surface CRT expression”.
As to `O=C(O)c1ccc(-c2c3nc(cc4ccc([nH]4)c(-c4ccc(C(=O)O)cc4)c4nc(cc5ccc2[nH]5)C=C4)C=C3)cc1` [H2DBP, 5,15-di(p-benzoato)porphyrin], the “k (singlet oxygen generation rate)” value in test [1] (5 μM in HBSS, 640 nm LED 100 mW/cm^2, listed as DBP) turned out to be 0.0015 s⁻¹. Also, the “k (fitting parameter for 1O2 generation curve)” value in test [1] is 0.06 min⁻¹. For the same compound, the “PDT efficacy (cell viability)” value in test [3] is “moderate PDT efficacy only at 20 μM dose with 30 min light irradiation”.
